Experiment [1] deals with AP-1 induced transcriptional activity. The experiment can be described thus: Cellular transrepressional assay (AP-1 luciferase reporter, PMA-activated A549 cell). The note with it: A549 cell, 10 ng/ml PMA, 7 hours; for EC50: read-out: AP-1 (EC50, nM) (measured in cellular transrepression assay). It counts as cell-based. As for the experimental part: To measure the ability of test molecules to inhibit AP-1 induced transcriptional activity we utilized an A549 cell which was stably transfected with a plasmid containing 7×AP-1 DNA binding sites (pAP-1-Luc plasmid, Stratagene Co., La Jolla, Calif.) followed by the gene for luciferase. Cells were activated with 10 ng/ml of phorbol myristic acid (PMA) plus or minus test molecules for 7 hours. After 7 hours a luciferase reagent was added to measure luciferase enzymatic activity in the cell. After a 10 minute incubation of luciferase reagent with cells, luminescence was measured in a TOPCOUNT® luminescence counter. Repression of AP-1 activity was calculated as the percentage decrease in the signal induced by PMA alone. Test molecules were analyzed in the concentration range from 0.1 nM to 40 μM. EC50s were determined by using standard curve fitting methods such as Excel fit (Microsoft Co.). An EC50 is the test molecule concentration at which there is a 50% repression of the maximal inhibition of transcription, i.e., a 50% reduction of AP-1 activity.
A general note: A reporter such as luciferase makes a cellular process visible.

Experiment [2] addresses human full-length glucocorticoid receptor (Homo sapiens (Human), UniProt P04150). In words: Glucocorticoid Receptor Binding Assay (II), fluorescence polarization competitor kit. The note with it: read-out: GR (Ki, nM) (measured in GR binding Assay II). As for the experimental part: In order to measure the binding of compounds on the glucocorticoid receptor a commercially available kit was used (Glucocorticoid receptor competitor assay kit, PanVera Co., Madison, Wis., P2816). Briefly, a cell lysate containing recombinantly expressed human full-length glucocorticoid receptor was mixed with a fluorescently labeled glucocorticoid (1 nM Fluormone GS1) in the presence or absence of test compound. After one hour at room temperature, the fluorescence polarization (FP) of the samples were measured.
For orientation: Polarisation of emitted light reports the rotation of a fluorescent probe.

Broadly, the EC50 is the concentration needed to bring the measured effect to its halfway point. Broadly, the Ki is a measure of affinity in units of concentration, obtained from inhibition or displacement.

human full-length glucocorticoid receptor, sequence (P04150 whole entry): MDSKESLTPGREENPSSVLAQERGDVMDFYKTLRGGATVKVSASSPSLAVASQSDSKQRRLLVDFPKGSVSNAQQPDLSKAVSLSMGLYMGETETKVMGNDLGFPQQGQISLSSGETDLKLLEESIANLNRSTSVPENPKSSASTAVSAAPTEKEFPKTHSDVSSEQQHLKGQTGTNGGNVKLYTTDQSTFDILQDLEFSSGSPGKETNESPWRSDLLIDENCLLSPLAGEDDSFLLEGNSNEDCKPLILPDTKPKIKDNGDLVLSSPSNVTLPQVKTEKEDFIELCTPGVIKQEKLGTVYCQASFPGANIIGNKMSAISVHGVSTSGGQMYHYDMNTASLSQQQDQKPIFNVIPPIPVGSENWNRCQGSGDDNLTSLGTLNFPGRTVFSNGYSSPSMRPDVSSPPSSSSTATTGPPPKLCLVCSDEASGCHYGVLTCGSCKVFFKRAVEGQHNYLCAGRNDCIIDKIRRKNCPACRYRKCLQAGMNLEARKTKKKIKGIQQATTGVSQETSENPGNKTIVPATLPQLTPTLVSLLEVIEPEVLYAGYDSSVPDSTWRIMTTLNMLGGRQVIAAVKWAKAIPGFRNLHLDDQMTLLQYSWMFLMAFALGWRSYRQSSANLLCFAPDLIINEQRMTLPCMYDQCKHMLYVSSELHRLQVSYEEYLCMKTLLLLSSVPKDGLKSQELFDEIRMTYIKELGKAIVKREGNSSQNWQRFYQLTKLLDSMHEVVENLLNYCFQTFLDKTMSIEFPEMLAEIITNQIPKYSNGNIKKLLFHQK

With `CCS(=O)(=O)c1ccc(-c2ccc3c(n2)Oc2c(F)cccc2[C@@H]3C(C)(C)C(=O)NC(N)=O)cc1` [Example 31], in experiment [1], the “AP-1 Max % inhibition (measured in cellular transrepression assay)” value (from here on “AP-1 Max % inhibition”) worked out at 56.84% and the EC50 worked out at 5.55 nM. Also, the Ki in experiment [2] was 0.43 nM.

Turning to `CC(C)S(=O)(=O)c1ccc(-c2ccc3c(n2)Oc2c(F)cccc2[C@@H]3C(C)(C)C(=O)NC(N)=O)cc1` [Example 32], in experiment [1], the “AP-1 Max % inhibition” value is 59.56% and the EC50 came to 4.89 nM. Also, the Ki in experiment [2] was determined as 3.55 nM.

With `CC(C)(C(=O)NC(N)=O)[C@@H]1c2ccc(-c3ccc(S(C)(=O)=O)cc3)nc2Oc2c(F)cccc21` [Example 33], in experiment [1], the “AP-1 Max % inhibition” value stood at 64.54% and the EC50 was 5.82 nM. Also, the Ki in experiment [2] came to 0.59 nM.

Regarding `CC(C)Oc1ccc(-c2ccc3c(n2)Oc2c(F)cccc2[C@@H]3C(C)(C)C(=O)NC(N)=O)cc1` [Example 34], in experiment [1], the “AP-1 Max % inhibition” value turned out to be 68.62% and the EC50 is 1.24 nM. In experiment [2], the Ki was found to be 0.25 nM.

On to `CC(C)Oc1ccc(-c2ccc3c(n2)Oc2c(F)cccc2[C@@H]3C(C)(C)C(=O)NC(N)=O)cc1F` [Example 35], for which, in experiment [1], the “AP-1 Max % inhibition” value was determined as 54.04% and the EC50 is 7.5 nM. The Ki in experiment [2] stood at 0.4 nM.

For the molecule `CC(C)Oc1ccc(-c2ccc3c(n2)Oc2ccccc2[C@@H]3C(C)(C)C(=O)NC(N)=O)cc1` [Example 36], in experiment [1], the “AP-1 Max % inhibition” value is given as 59.83% and the EC50 came to 16.2 nM. In experiment [2], the inhibition constant Ki was 0.8 nM.

Turning to `CCC(C)c1ccc(-c2ccc3c(n2)Oc2ccccc2[C@@H]3C(C)(C)C(=O)NC(N)=O)cc1` (stereo partly drawn) [Example 38], in experiment [1], the “AP-1 Max % inhibition” value is recorded as 56.33% and the EC50 was 14.1 nM. The Ki in experiment [2] is 1.74 nM.

For the molecule `CCS(=O)(=O)c1ccc(-c2ccc3c(n2)Oc2ccccc2[C@@H]3C(C)(C)C(=O)NC(N)=O)cc1` [Example 39], in experiment [1], the “AP-1 Max % inhibition” value was determined as 58.23% and the EC50 is 13 nM. Moreover, the Ki in experiment [2] amounted to 0.93 nM.

With `CC(C)(C(=O)NC(N)=O)[C@H]1c2ccccc2Oc2nc(-c3ccc(C(=O)N4CCCC4)cc3)ccc21` [Example 40], in experiment [1], the “AP-1 Max % inhibition” value amounted to 68.22% and the EC50 came to 8.69 nM. In experiment [2], the Ki is 1.93 nM.

For the molecule `CCCCc1ccc(-c2ccc3c(n2)Oc2c(F)cccc2[C@@H]3C(C)(C)C(=O)NC(N)=O)cc1` [Example 43], in experiment [1], the “AP-1 Max % inhibition” value was determined as 67.14% and the EC50 came out at 5.39 nM. Besides, in experiment [2], the Ki was 0.91 nM.

On to `CC(C)(C(=O)NC(N)=O)[C@@H]1c2ccc(-c3ccc(-n4cnnn4)cc3)nc2Oc2c(F)cccc21` [Example 45], for which, in experiment [1], the “AP-1 Max % inhibition” value was found to be 55.41% and the EC50 stood at 7.77 nM. Further, the Ki in experiment [2] amounted to 0.82 nM.

Take `CC(C)(C(=O)NC(N)=O)[C@@H]1c2ccc(-c3ccc(C(=O)N4CCCC4)nc3)nc2Oc2c(F)cccc21` [Example 46]: in experiment [1], the “AP-1 Max % inhibition” value amounted to 65.90% and the EC50 turned out to be 16.5 nM. The Ki in experiment [2] came to 1.97 nM.

`CC(C)(C(=O)NC(N)=O)[C@H]1c2ccccc2Oc2nc(-c3ccc(C(=O)N4CCC(F)(F)C4)c(F)c3)ccc21` [Example 49]: in experiment [1], the “AP-1 Max % inhibition” value is listed as 67.00% and the EC50 stood at 13.3 nM. In addition, the Ki in experiment [2] was 1.09 nM.

Consider `CC(C)(C(=O)NC(N)=O)[C@H]1c2ccccc2Oc2nc(-c3ccc(C(=O)N4CCC(F)(F)C4)cc3)ccc21` [Example 50], for which, in experiment [1], the “AP-1 Max % inhibition” value was determined as 69.26% and the EC50 stood at 15.3 nM. Besides, the Ki in experiment [2] is 1.76 nM.

As for `CC(C)(C(=O)NC(N)=O)[C@H]1c2ccccc2Oc2nc(-c3ccc(C(=O)N4CCCC4)c(F)c3)ccc21` [Example 51], in experiment [1], the “AP-1 Max % inhibition” value is listed as 65.20% and the EC50 is 13.2 nM. Also, the Ki in experiment [2] worked out at 1.34 nM.

Values taken from patent US9593113B2, “Imide and acylurea derivatives as modulators of the glucocorticoid receptor” (BRISTOL-MYERS SQUIBB COMPANY, priority 2013, dated 2017).
